Reference: EP2952497A1, “Method for neutralizing detrimental effects of thiolbearing compounds on metal catalysts” (Universität Basel, priority 2014, dated 2015)

Key:
[1] = screening of GSH neutralizing agents in GSH-spiked solutions before imine reduction; format: biochemical; details: for compatibility with the catalytic systems: solutions with or without Sav isoform, with or without 2.5 mmol/l GSH; for efficacy as GSH neutralizing agent: solutions spiked with 2.5 mmol/l GSH, incubated with agent before adding Ir-catalyst, reaction 2 days
Procedure: Michael acceptors and oxidizing agents known to react with GSH were selected to yield the corresponding thioether and disulfide, respectively. The following Michael acceptors were tested: maleinimide (Malln), 2-bromo-1-phenylethanone (BrPheOne), phenyl-vinylsulfone (PheViSul) and 3-Phenyl-2-propynenitrile (PhePropNit). The following oxidizing agents were selected: oxone (Ox), 1,4-benzoquinone (BQ), K3[Fe(CN)6] Fe^3+, and diamide (DiAm) (figure 2). For this purpose, solutions either with or without a Sav isoform were spiked with 2.5 mmol/l GSH and incubated overnight in presence of different concentrations of a particular GSH neutralizing agent before adding the Ir-catalyst. The reactions were initiated by addition of the imine substrate and run for 2 days (see Table 2).
An equimolar amount has no benefit on the reaction whereas four equivalents led to a decrease in conversion and enantioselectivity in the case of the S112K mutant. • 4) Despite the fact that H2O2 is commonly used to oxidize GSH, Ox was favoured for this purpose. […] Increasing the concentration of the GSH neutralizing agents leads to less consistent results. The outcome of the reaction depends on the Sav-mutant (if any) is used. […] A similar behaviour is observed with BrPheOne when no Sav or the S112K mutant was present.

[2] = test system: living cells, including E. coli; details: cited from earlier work
[3] = test system: [Cp*Ir(biot-p-L)Cl] c S112A Sav (streptavidin variant S112A, SEQ ID NO 1); details: 2.5 mM GSH; substrate 10 mM; purified Sav; RT, 48 h
Procedure: (§1) Initial experiments were performed using 50 µmol/l [Cp*Ir(biot-p-L)Cl], 100 µmol/l biotin binding sites (i.e. 25 µmol/l tetrameric Sav), 1 M HCO2Na in MOPS buffer ([…], pH 7) (see scheme 1). For comparison purposes, the imine reduction was performed with [Cp*Ir(biot-p-L)Cl]; [Cp*Ir(biot-p-L)Cl] c S112A Sav and [Cp*Ir(biot-p-L)Cl] c S112K Sav, cf. scheme 1.
(§2) Without wishing to be bound by theory, the inventors speculate that oxidizing GSH or derivatizing its thiol function could -at least partially- prevent inhibition of the hybrid catalysts.

[4] = test system: [Cp*Ir(biot-p-L)Cl] c S112K Sav (streptavidin variant S112K, SEQ ID NO 2); details: 2.5 mM GSH; substrate 10 mM; purified Sav; RT, 48 h
Procedure: as §1, §2

[5] = test system: [Cp*Ir(biot-p-L)Cl] c S112A Sav ATHase (streptavidin variant S112A, SEQ ID NO 1); details: substrate not given, taken as the imine (salsolidine precursor); cited from earlier work
[6] = test system: [Cp*Ir(biot-p-L)Cl] c S112K Sav ATHase (streptavidin variant S112K, SEQ ID NO 2); details: substrate not given, taken as the imine (salsolidine precursor); cited from earlier work

Row | Compound | compatibility with the catalytic systems [1] | efficacy as GSH neutralizing agent [1] | further results
1 | O=C1C=CC(=O)C=C1 [BQ, 1,4-benzoquinone] | not compatible with any of the three catalytic systems |  | 
2 | O=C(CBr)c1ccccc1 [BrPheOne, 2-bromo-1-phenylethanone] |  | most effective GSH neutralizing agents | 
3 | CN(C)C(=O)/N=N/C(=O)N(C)C [DiAm, diamide] | fully compatible with the artificial metalloenzymes | most effective GSH neutralizing agents | compatibility with living cells [2]: causing neither lysis nor death
4 | N[C@@H](CCC(=O)N[C@@H](CS)C(=O)NCC(=O)O)C(=O)O [GSH, glutathione] |  |  | inhibition of reduction of the salsolidine precursor [3]: no activity; inhibition of reduction of the salsolidine precursor [4]: no activity
5 | O=C1C=CC(=O)N1 [Malln, maleinimide] | limited compatibility |  | 
6 | N#CC#Cc1ccccc1 [PhePropNit, 3-Phenyl-2-propynenitrile] |  | most effective when applied at a ratio PhePropNit/GSH 2:1 | 
7 | C=CS(=O)(=O)c1ccccc1 [PheViSul, phenyl-vinylsulfone] | does not affect the free Ir-complex | most effective GSH neutralizing agents | 
8 | COc1cc2c(cc1OC)C(C)=NCC2 [salsolidine precursor, 1-methyl-6,7-dimethoxy-3,4-dihydroisoquinoline] |  |  | kcat [5]: 0.19 s⁻¹; kcat [6]: 0.0433 s⁻¹
9 | oxone |  | efficacy is most pronounced with four equivalents vs. GSH | 
